Experimental data: PMC10586084 (Journal of Enzyme Inhibition and Medicinal Chemistry, 2023)

Experiments:
Format in all cases: biochemical
[1] = biological target: hCA XII (Homo sapiens, UniProt O43570); experiment: stopped-flow CO2 hydrase assay, hCA XII; details: for Ki: KI hCA XII, stopped flow technique, mean from three assays; for Selectivity index I/XII: ratio KI hCA I / KI hCA XII; for Selectivity index II/XII: ratio KI hCA II / KI hCA XII; for Selectivity index IV/XII: ratio KI hCA IV / KI hCA XII
Chain of hCA XII (O43570 25-354): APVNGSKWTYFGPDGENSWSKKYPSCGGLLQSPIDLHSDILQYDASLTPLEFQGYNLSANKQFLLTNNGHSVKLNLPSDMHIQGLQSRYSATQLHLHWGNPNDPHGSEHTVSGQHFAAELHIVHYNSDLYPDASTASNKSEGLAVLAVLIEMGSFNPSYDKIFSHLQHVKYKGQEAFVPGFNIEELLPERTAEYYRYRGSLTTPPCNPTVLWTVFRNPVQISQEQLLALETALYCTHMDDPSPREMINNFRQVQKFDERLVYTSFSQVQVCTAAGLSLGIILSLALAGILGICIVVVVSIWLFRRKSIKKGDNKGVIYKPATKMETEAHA

[2] = biological target: hCA IV (Homo sapiens, UniProt P22748); experiment: stopped-flow CO2 hydrase assay, hCA IV; details: stopped flow technique, mean from three assays
Chain of hCA IV (P22748 19-284 limits assumed): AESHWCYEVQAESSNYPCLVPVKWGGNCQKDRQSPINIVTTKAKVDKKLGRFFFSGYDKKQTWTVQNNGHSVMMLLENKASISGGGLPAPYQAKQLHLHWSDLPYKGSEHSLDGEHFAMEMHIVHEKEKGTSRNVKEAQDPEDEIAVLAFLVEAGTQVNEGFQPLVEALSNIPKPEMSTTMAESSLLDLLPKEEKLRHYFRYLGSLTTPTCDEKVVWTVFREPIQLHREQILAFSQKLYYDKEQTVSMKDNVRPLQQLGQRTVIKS

[3] = biological target: hCA II (Homo sapiens, UniProt P00918); experiment: stopped-flow CO2 hydrase assay, hCA II; details: stopped flow technique, mean from three assays
[4] = biological target: hCA I (Homo sapiens, UniProt P00915); experiment: stopped-flow CO2 hydrase assay, hCA I; details: stopped flow technique, mean from three assays
Chain of hCA I (P00915 whole entry): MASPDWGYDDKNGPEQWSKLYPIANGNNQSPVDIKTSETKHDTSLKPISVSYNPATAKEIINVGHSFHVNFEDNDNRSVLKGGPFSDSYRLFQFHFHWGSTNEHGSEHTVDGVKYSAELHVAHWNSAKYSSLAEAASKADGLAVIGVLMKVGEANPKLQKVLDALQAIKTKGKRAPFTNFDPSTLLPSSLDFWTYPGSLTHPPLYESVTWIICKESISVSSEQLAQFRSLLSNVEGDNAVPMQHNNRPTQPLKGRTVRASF

[5] = biological target: hCA IX (Homo sapiens, UniProt Q16790); experiment: biochemical; details: for Ki: KI hCA IX, stopped flow technique, mean from three assays; for Selectivity index I/IX: ratio KI hCA I / KI hCA IX; for Selectivity index II/IX: ratio KI hCA II / KI hCA IX; for Selectivity index IV/IX: ratio KI hCA IV / KI hCA IX

| Structure (SMILES) | Ki [1] | Selectivity index I/XII [1] | Selectivity index II/XII [1] | Selectivity index IV/XII [1] | Ki [2] | Ki [3] | Ki [4] | Ki [5] | Selectivity index I/IX [5] | Selectivity index II/IX [5] | Selectivity index IV/IX [5] |
| --- | --- | --- | --- | --- | --- | --- | --- | --- | --- | --- | --- |
| NS(=O)(=O)c1ccc(Nc2nc3nccc(-c4cccc(Br)c4)n3n2)cc1 [Compound 1o, 4-((7-(3-Bromophenyl)-[1,2,4]triazolo[1,5-a]pyrimidin-2-yl)amino)benzenesulfonamide] | 78.6 nM | 117 | 1.7 | 55.1 | 4330 nM | 133 nM | 9200 nM | 38.1 nM | 241 | 3.5 | 114 |
| NS(=O)(=O)c1ccc(Nc2nc3nccc(-c4cccc([N+](=O)[O-])c4)n3n2)cc1 [Compound 1r, 4-((7-(3-Nitrophenyl)-[1,2,4]triazolo[1,5-a]pyrimidin-2-yl)amino)benzenesulfonamide] | 4.3 nM | 806 | 11.2 | 160 | 690 nM | 48 nM | 3470 nM | 49.9 nM | 69.5 | 1.0 | 13.8 |
| NS(=O)(=O)c1ccc(Nc2nc3nccc(-c4cccs4)n3n2)cc1 [Compound 1b, 4-((7-(Thiophen-2-yl)-[1,2,4]triazolo[1,5-a]pyrimidin-2-yl)amino)benzenesulfonamide] | 66.9 nM | 7.5 | 1.5 | 39.7 | 2660 nM | 98.2 nM | 501 nM | 49.5 nM | 10.1 | 2.0 | 53.7 |
| CCOc1ccc(-c2ccnc3nc(Nc4ccc(S(N)(=O)=O)cc4)nn23)cc1 [Compound 1z, 4-((7-(4-Ethoxyphenyl)-[1,2,4]triazolo[1,5-a]pyrimidin-2-yl)amino)benzenesulfonamide] | 55.2 nM | 40.9 | 1.2 | 66.1 | 3650 nM | 69.3 nM | 2260 nM | 43.5 nM | 51.9 | 1.6 | 83.9 |
| NS(=O)(=O)c1ccc(Nc2nc3nccc(-c4ccc(Br)cc4)n3n2)cc1 [Compound 1n, 4-((7-(4-Bromophenyl)-[1,2,4]triazolo[1,5-a]pyrimidin-2-yl)amino)benzenesulfonamide] | 58.2 nM | 57.8 | 3.4 | 89.6 | 5210 nM | 200 nM | 3370 nM | 52.7 nM | 63.8 | 3.8 | 98.9 |
| NS(=O)(=O)c1ccc(Nc2nc3nccc(-c4cccc(F)c4)n3n2)cc1 [Compound 1g, 4-((7-(3-Fluorophenyl)-[1,2,4]triazolo[1,5-a]pyrimidin-2-yl)amino)benzenesulfonamide] | 42.6 nM | 12.9 | 1.1 | 20.0 | 853 nM | 45.9 nM | 551 nM | 22.4 nM | 24.6 | 2.0 | 38.1 |
| NS(=O)(=O)c1ccc(Nc2nc3nccc(-c4ccncc4)n3n2)cc1 [Compound 1c, 4-((7-(Pyridin-4-yl)-[1,2,4]triazolo[1,5-a]pyrimidin-2-yl)amino)benzenesulfonamide] | 15.3 nM | 47.4 | 2.9 | 47.5 | 726 nM | 43.7 nM | 725 nM | 41.6 nM | 17.4 | 1.0 | 17.5 |
| NS(=O)(=O)c1ccc(Nc2nc3nccc(-c4ccccc4)n3n2)cc1 [Compound 1a, 4-((7-Phenyl-[1,2,4]triazolo[1,5-a]pyrimidin-2-yl)amino)benzenesulfonamide] | 71.7 nM | 11.7 | 1.0 | 18.5 | 1330 nM | 75.3 nM | 841 nM | 33.2 nM | 25.3 | 2.3 | 39.9 |
| Cc1cccc(-c2ccnc3nc(Nc4ccc(S(N)(=O)=O)cc4)nn23)c1 [Compound 1u, 4-((7-(m-Tolyl)-[1,2,4]triazolo[1,5-a]pyrimidin-2-yl)amino)benzenesulfonamide] | 70.2 nM | 20.0 | 0.8 | 69.0 | 4850 nM | 55.2 nM | 1400 nM | 26.2 nM | 53.5 | 2.1 | 185 |

Results, then the compound that gave them:

| Ki [1] | Selectivity index I/XII [1] | Selectivity index II/XII [1] | Selectivity index IV/XII [1] | Ki [2] | Ki [3] | Ki [4] | Ki [5] | Selectivity index I/IX [5] | Selectivity index II/IX [5] | Selectivity index IV/IX [5] | Structure (SMILES) |
| --- | --- | --- | --- | --- | --- | --- | --- | --- | --- | --- | --- |
| 48.9 nM | 173 | 1.6 | 81.4 | 3980 nM | 77.1 nM | 8450 nM | 20.4 nM | 414 | 3.8 | 195 | NS(=O)(=O)c1ccc(Nc2nc3nccc(-c4ccccc4[N+](=O)[O-])n3n2)cc1 [Compound 1s, 4-((7-(2-Nitrophenyl)-[1,2,4]triazolo[1,5-a]pyrimidin-2-yl)amino)benzenesulfonamide] |
| 8.8 nM |  |  |  | 333 nM | 24.8 nM | 602 nM | 5.1 nM |  |  |  | NS(=O)(=O)c1ccc(Nc2nc3nccc(-c4cccnc4)n3n2)cc1 [Compound 1d, 4-((7-(Pyridin-3-yl)-[1,2,4]triazolo[1,5-a]pyrimidin-2-yl)amino)benzenesulfonamide] |
| 62.4 nM | 12.2 | 1.3 | 15.9 | 993 nM | 82.7 nM | 763 nM | 28.8 nM | 26.5 | 2.9 | 34.5 | NS(=O)(=O)c1ccc(Nc2nc3nccc(-c4ccc(F)cc4)n3n2)cc1 [Compound 1f, 4-((7-(4-Fluorophenyl)-[1,2,4]triazolo[1,5-a]pyrimidin-2-yl)amino)benzenesulfonamide] |
| 25.8 nM | 26.4 | 1.4 | 35.7 | 920 nM | 35.9 nM | 682 nM | 19.5 nM | 35.0 | 1.8 | 47.2 | NS(=O)(=O)c1ccc(Nc2nc3nccc(-c4ccccc4F)n3n2)cc1 [Compound 1h, 4-((7-(2-Fluorophenyl)-[1,2,4]triazolo[1,5-a]pyrimidin-2-yl)amino)benzenesulfonamide] |
